Experimental data taken from US9175003B2, “Substituted azoanthracene derivatives and intermediates for preparation thereof” (TransTech Pharma, LLC, priority 2009, dated 2015).

target: human GLP-1 receptor (Homo sapiens (Human), UniProt P43220); conditions: read-out: Mean EC50; cAMP, HTRF detection, 30 min at 37° C., HEK-293 cells expressing cloned human GLP-1 receptor
Sequence (P43220 24-463): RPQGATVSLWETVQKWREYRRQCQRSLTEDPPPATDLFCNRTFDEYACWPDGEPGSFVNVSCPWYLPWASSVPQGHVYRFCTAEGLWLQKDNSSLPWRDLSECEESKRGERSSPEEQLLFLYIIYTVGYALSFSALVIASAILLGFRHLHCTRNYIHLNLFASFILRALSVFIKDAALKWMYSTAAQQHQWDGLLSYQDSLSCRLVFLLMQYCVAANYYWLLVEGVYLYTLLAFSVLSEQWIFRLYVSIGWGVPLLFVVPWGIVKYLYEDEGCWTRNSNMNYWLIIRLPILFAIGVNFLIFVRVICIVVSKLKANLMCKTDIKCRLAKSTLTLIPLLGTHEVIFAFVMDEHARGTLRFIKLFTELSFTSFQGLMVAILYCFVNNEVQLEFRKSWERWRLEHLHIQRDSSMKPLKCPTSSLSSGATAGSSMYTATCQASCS
Protocol: Following overnight incubation of cells, media was removed, and compounds (at concentrations ranging from 0.0001 to 100 μM) were added to monolayer cells in Iscove's modified dulbecco's medium (IMDM), 100 μM RO 20-1724 PDE inhibitor, 0.1% BSA, 2% DMSO in a final volume of 100 μL, and incubated for 30 min at 37° C. […] Alternatively, cells were harvested and combined with compounds in suspension using the buffer and protocol described above. cAMP was quantified using a homogenous time-resolved fluorescence detection system (cAMP dynamic, CIS bio International).

EC50 [nM]	SMILES
31	Cc1nc(C(=O)N2Cc3cc4c(cc3C[C@H]2C(=O)N[C@@H](Cc2ccc(-c3ccnc(C)c3C)cc2)C(=O)O)OC[C@H](c2ccc(OCc3ccc(Cl)c(Cl)c3)cc2)O4)co1 [Example 431, (S)-2-{[(3S,8S)-3-[4-(3,4-Dichloro-benzyloxy)-phenyl]-7-(2-methyl-oxazole-4-carbonyl)-2,3,6,7,8,9-hexahydro-[1,4]dioxino[2,3-g]isoquinoline-8-carbonyl]-amino}-3-[4-(2,3-dimethyl-pyridin-4-yl)-phenyl]-propionic acid]
21	Cc1nc(C)c(C(=O)N2Cc3cc4c(cc3C[C@H]2C(=O)N[C@@H](Cc2ccc(-c3ccnc(C)c3C)cc2)C(=O)O)OC[C@H](c2ccc(OCc3ccc(Cl)c(Cl)c3)cc2)O4)o1 [Example 432, (S)-2-{[(3S,8S)-3-[4-(3,4-Dichloro-benzyloxy)-phenyl]-7-(2,4-dimethyl-oxazole-5-carbonyl)-2,3,6,7,8,9-hexahydro-[1,4]dioxino[2,3-g]isoquinoline-8-carbonyl]-amino}-3-[4-(2,3-dimethyl-pyridin-4-yl)-phenyl]-propionic acid]
320	Cc1nccc(Oc2ccc(C[C@H](NC(=O)[C@@H]3Cc4cc5c(cc4CN3S(=O)(=O)C(C)C)O[C@@H](c3ccc(OCc4ccc(Cl)c(Cl)c4)cc3)CO5)C(=O)O)cc2)c1C [Example 436, (S)-2-{[(3S,8S)-3-[4-(3,4-Dichloro-benzyloxy)-phenyl]-7-(propane-2-sulfonyl)-2,3,6,7,8,9-hexahydro-[1,4]dioxino[2,3-g]isoquinoline-8-carbonyl]-amino}-3-[4-(2,3-dimethyl-pyridin-4-yloxy)-phenyl]-propionic acid]
37	Cc1nccc(-c2ccc(C[C@H](NC(=O)[C@@H]3Cc4cc5c(cc4CN3C(=O)NC3(C)CCCCC3)O[C@@H](c3ccc(OCc4ccc(Cl)c(Cl)c4)cc3)CO5)C(=O)O)cc2)c1C [Example 438, (S)-2-{[(3S,8S)-3-[4-(3,4-Dichloro-benzyloxy)-phenyl]-7-(1-methyl-cyclohexylcarbamoyl)-2,3,6,7,8,9-hexahydro-[1,4]dioxino[2,3-g]isoquinoline-8-carbonyl]-amino}-3-[4-(2,3-dimethyl-pyridin-4-yl)phenyl]-propionic acid]
387	Cc1nc(C(=O)N2Cc3cc4c(cc3C[C@H]2C(=O)N[C@@H](Cc2ccc(-c3ccc(F)cc3)cc2)C(=O)O)OC[C@H](c2ccc(OCc3ccc(Cl)c(Cl)c3)cc2)O4)c(C)o1 [Example 440, (S)-2-{[(3S,8S)-3-[4-(3,4-Dichloro-benzyloxy)-phenyl]-7-(2,5-dimethyl-oxazole-4-carbonyl)-2,3,6,7,8,9-hexahydro-[1,4]dioxino[2,3-g]isoquinoline-8-carbonyl]-amino}-3-(4′-fluoro-biphenyl-4-yl)-propionic acid]
208	Cc1nccc(-c2ccc(C[C@H](NC(=O)[C@@H]3Cc4cc5c(cc4CN3C(=O)c3ccccc3)O[C@@H](c3ccc(OCC4CCCCC4)cc3)CO5)C(=O)O)cc2)c1C [Example 442, (S)-2-{[(3S,8S)-7-Benzoyl-3-(4-cyclohexylmethoxy-phenyl)-2,3,6,7,8,9-hexahydro-[1,4]dioxino[2,3-g]isoquinoline-8-carbonyl]-amino}-3-[4-(2,3-dimethyl-pyridin-4-yl)-phenyl]-propionic acid]
